13 molecules from PubChem BioAssay (NCI) can be followed below.

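Where inhibition never reached the appropriate level, the endpoint shown equals the highest concentration tested. Otherwise, values were interpolated linearly from a five-concentration, 48-hour dose response in 96-well plates. GI50: concentration for 50% inhibition of growth. The concentration for full growth arrest is given as TGI.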

Test systems include MCF7 breast; SK-MEL-28 melanoma; MDA-MB-435; MOLT-4 leukemia; RPMI-8226 leukemia; MALME-3M melanoma; SW-620 colon; HS 578T breast; DU-145 prostate; RXF 393 renal.
Common to all, as to assay: NCI anticancer screen, dose series, 48 h

Consider `CCC1(CC)C(=O)N(C(=O)c2ccc(Cl)cc2)N(C(=O)c2ccccc2Cl)C1=O`, for which the TGI with MCF7 breast was greater than 100 µM; in the test with SK-MEL-28 melanoma, greater than 100 µM; with MDA-MB-435, 43.9 µM; with MOLT-4 leukemia, 52.2 µM; with RPMI-8226 leukemia, 78.9 µM; in the test with MALME-3M melanoma, greater than 100 µM. The TGI is 89.8 µM in the test with SW-620 colon, greater than 100 µM in the test on HS 578T breast, greater than 100 µM with DU-145 prostate and greater than 100 µM with RXF 393 renal.
As for `COc1cccc2c(NNc3ccc(Cl)cc3)c3ccc([N+](=O)[O-])cc3nc12`, the TGI in the test with MCF7 breast is greater than 100 µM; in the test on SK-MEL-28 melanoma it was greater than 100 µM; in the test with MDA-MB-435, greater than 100 µM; in the test on MOLT-4 leukemia, 11.5 µM; with RPMI-8226 leukemia, greater than 100 µM; in the test on MALME-3M melanoma, 22 µM. In addition, the TGI in the test with SW-620 colon was greater than 100 µM; in the test on HS 578T breast it was 50.6 µM; in the test with DU-145 prostate, 53.5 µM; with RXF 393 renal, 48 µM.
For the molecule `CSc1nc(Cl)c2c(n1)Sc1ncnn1C2O` (stereo not drawn), the TGI in the test on MCF7 breast is 16 µM; in the test with SK-MEL-28 melanoma, greater than 100 µM; in the test on MDA-MB-435 it was 15.9 µM; with MOLT-4 leukemia, 27.1 µM; in the test with MALME-3M melanoma, 8.22 µM; in the test with SW-620 colon, 36.3 µM. Moreover, the TGI with HS 578T breast was found to be 23.2 µM; in the test on DU-145 prostate it was 19.2 µM; in the test with RXF 393 renal, 5.63 µM.
Regarding `COc1ccc2c(c1)CCC1C2CCC2(C)C1CC[C@@]2(O)CNC(=O)/C=C/c1ccc(O)c(O)c1` (stereo partly drawn), the GI50 with MCF7 breast is 3.66 µM; in the test with SK-MEL-28 melanoma it was 4.33 µM; in the test on MDA-MB-435, 2.86 µM; in the test with MOLT-4 leukemia, 0.382 µM; with MALME-3M melanoma, 3.56 µM; in the test with SW-620 colon it was 4.07 µM. Also, the GI50 was 7.62 µM in the test with HS 578T breast, 3.11 µM in the test on DU-145 prostate and 3.98 µM in the test on RXF 393 renal. For the same molecule, the TGI is greater than 100 µM in the test with MCF7 breast; 31.8 µM in the test on SK-MEL-28 melanoma; 19.2 µM in the test on MDA-MB-435; 2.28 µM in the test with MOLT-4 leukemia; 9.6 µM in the test with MALME-3M melanoma; greater than 100 µM in the test with SW-620 colon. The TGI with HS 578T breast was greater than 100 µM; with DU-145 prostate, greater than 100 µM; in the test on RXF 393 renal it was 16.7 µM.
As to `COCN1C(=O)[C@@H]2C[C@@H](OC/C=C/CBr)CN2C(=O)c2ccccc21`, the TGI was 33.7 µM in the test on MCF7 breast; 45.4 µM with SK-MEL-28 melanoma; 50.9 µM in the test on MDA-MB-435; greater than 100 µM in the test with MOLT-4 leukemia; 35.3 µM in the test on MALME-3M melanoma; 45.6 µM in the test with SW-620 colon. Further, the TGI in the test with HS 578T breast is greater than 100 µM; in the test with DU-145 prostate it was 43.9 µM; in the test on RXF 393 renal, 51.3 µM.
Turning to `CC(C)(Oc1ccc(C2C[C@H]2Cl)cc1)C(=O)O` (stereo partly drawn), the TGI in the test on MCF7 breast, with SK-MEL-28 melanoma, in the test with MDA-MB-435, in the test with MOLT-4 leukemia, in the test with RPMI-8226 leukemia and with SW-620 colon was greater than 100 µM in each case. Besides, the TGI with HS 578T breast, in the test with DU-145 prostate and in the test with RXF 393 renal was greater than 100 µM in each case.
For `C=C(Cl)C(Cl)(CBr)CCC(Cl)C(C)C` (stereo not drawn), the TGI with MCF7 breast is 2.57 µM; in the test on SK-MEL-28 melanoma, 5.62 µM; in the test with MDA-MB-435 it was 20.6 µM; with MOLT-4 leukemia, greater than 62.9 µM; in the test on MALME-3M melanoma, 28.4 µM; in the test with SW-620 colon it was 11.8 µM. The TGI in the test on HS 578T breast was determined as 4.07 µM; in the test on DU-145 prostate, 3.77 µM; with RXF 393 renal it was 22 µM.
Regarding `O=C(CSCC(=O)N/N=C\c1cc(Br)cc(Br)c1O)N/N=C\c1cc(Br)cc(Br)c1O`, the TGI was greater than 100 µM in the test with MCF7 breast; greater than 100 µM with SK-MEL-28 melanoma; greater than 100 µM in the test with MDA-MB-435; 74.7 µM in the test on MOLT-4 leukemia; 42.5 µM with MALME-3M melanoma; greater than 100 µM in the test on SW-620 colon. Moreover, the TGI with HS 578T breast, in the test on DU-145 prostate and with RXF 393 renal was greater than 100 µM in each case.
`COc1c(-c2ccc3c(c2)OCO3)oc2cc3c(c(OC)c2c1=O)OCO3`: the TGI with MCF7 breast was 40.6 µM; in the test with SK-MEL-28 melanoma it was greater than 100 µM; in the test with MDA-MB-435, 36.2 µM; in the test on MOLT-4 leukemia it was greater than 100 µM; in the test on MALME-3M melanoma, 67.6 µM; with SW-620 colon, greater than 100 µM. Moreover, the TGI in the test with HS 578T breast is 93.9 µM; in the test with DU-145 prostate, greater than 100 µM; in the test with RXF 393 renal, 69.8 µM.
Regarding `CC(=S)NC1C(Oc2ccc3c(C)cc(=O)oc3c2)OC(CO)C(O)C1O` (stereo not drawn), the TGI with MCF7 breast, with SK-MEL-28 melanoma, in the test with MDA-MB-435, in the test on MOLT-4 leukemia, in the test on RPMI-8226 leukemia and in the test with SW-620 colon was greater than 100 µM throughout. For the same molecule, the TGI with HS 578T breast, with DU-145 prostate and in the test on RXF 393 renal was greater than 100 µM in each case.
`Clc1ccc(CCn2ccc3ccccc32)c(Cl)c1`: the TGI in the test on MCF7 breast, with MDA-MB-435, in the test with MOLT-4 leukemia, in the test with RPMI-8226 leukemia, with MALME-3M melanoma and with SW-620 colon was greater than 100 µM in each case. The TGI in the test with HS 578T breast, in the test with DU-145 prostate and in the test on RXF 393 renal was greater than 100 µM each time.
On to `O=S(=O)(CC#CCS(=O)(=O)c1ccccc1)c1ccccc1`, for which the TGI is 6.7 µM in the test with MCF7 breast; 25.7 µM in the test with SK-MEL-28 melanoma; 3.83 µM in the test on MDA-MB-435; greater than 42.2 µM with MOLT-4 leukemia; 3.82 µM in the test on MALME-3M melanoma; greater than 100 µM with SW-620 colon. In addition, the TGI in the test with HS 578T breast is greater than 36.5 µM; in the test with DU-145 prostate, 17.4 µM; with RXF 393 renal, 3.38 µM.
For `C=CC(C)(C)c1cc([C@@H]2COc3cc(O)ccc3C2=O)c(O)c(OC)c1OC`, the TGI was 31.8 µM in the test on MCF7 breast; 52.6 µM in the test with SK-MEL-28 melanoma; 21.5 µM in the test with MDA-MB-435; greater than 100 µM in the test on MOLT-4 leukemia; 43.2 µM in the test with MALME-3M melanoma; greater than 100 µM in the test with SW-620 colon. The values for the TGI in the test on HS 578T breast, with DU-145 prostate and with RXF 393 renal were 72.2 µM, 30.3 µM and 3.58 µM, respectively.
